Assay results published in patent US6858399B2, “Test for oxidative stress using cell suspensions” (priority 1998, dated 2005).

Columns and labels:
brain cell fractions = assay: PC biosynthesis of brain cell fractions; assay type: cell-based; conditions: brain cell fractions incubated 30 minutes; agent concentration (100 mM ethanol, 1 mM others)
Method: (§1) PC extraction procedure: Two ml of chloroform and 0.5 ml of water were added to each sample. Tubes were vortexed and centrifuged for 5 minutes to clear the upper and lower phases. The upper phase was aspirated and the lower phase washed by adding 2 ml of wash solution containing 50% methanol, 45% water and 5% 7.4% KCl. The samples were vortexed and centrifuged 5 minutes to clear the upper and lower phases. The upper phase was aspirated and the lower phase was washed again in 2 ml wash solution. After the phases were cleared by centrifugation, the lower phase was carefully removed, placed in a glass test tube, dried, solubilized in scintillation fluid and counted in a Beckman beta counter. Agent-induced alterations in the incorporation of labeled choline into PC was used as a measure of changes in cellular PC biosynthesis.
(§2) PC biosynthesis in isolated cells: Aliquots (0.75 ml) of Waymouth 752/1 media were placed in glass test tubes. Aliquots (0.01) of DMSO and water or DMSO and water containing various test agents were added to the tubes along with 0.02 ml [^3H]-choline [0.2 μCi and 15 pmoles choline]. Incubations were started by adding 0.5 ml aliquotes of cells suspended in Waymouth 752/1 media to the test tubes and placing the tubes in a shaking water bath at 37° C. Incubations were stopped after the appropriate incubation period (2-90 minutes) by addition of 2 ml of methanol containing 1% 1N HCl. Labeled PC was extracted by methods described above for cultured cells. Agent-induced increases in the incorporation of labeled choline into PC were used to measure increases in cellular PC biosynthesis.
Cells were isolated from brain homogenates according to the methods described in the methodology section under “PC biosynthesis in isolated cells”.

cultured astrocyte = assay: Cultured astrocyte PC biosynthesis; assay type: cell-based; conditions: for PC biosynthesis, Percent control of + SEM: cultured astrocytes, 100 mM ethanol, 1 mM APAP, 1 mM THC, 1 mM 4-MP, alone or combined
rat red blood cells = assay: Rat RBC PC biosynthesis; assay type: cell-based; conditions: rat RBC's, 10 minutes incubation
human red blood cells = assay: PC biosynthesis of human RBC's; assay type: cell-based; conditions: for PC biosynthesis percent of control ± SEM: 30 minutes incubation, 100 mM ethanol, 1 mM APAP, 1 mM THC, 10 mM allyl alcohol, 1 mM cocaine, 1 mM BTM, with and without 4-MP
erythrocytes [1] = conditions: Ferrali, et al, Biochem Pharm. 38, 1819-1825 (1989); cited from earlier work
human liver cells = assay: PC biosynthesis of human liver cells (labeled choline incorporation into PC); assay type: cell-based; conditions: for Alteration in cellular PC biosynthesis: human liver cells incubated 90 minutes, 100 mM ethanol or 1 mM acetaminophen
Method: (§3) PC biosynthesis in cultured cells: Aliquots (0.01 ml) of DMSO and water or DMSO and water containing various agents were added to medium with 2-hour monolayers of cells. After the appropriate agent-incubation period, a 0.02 ml aliquot of [^3H]-choline (0.2 μCi and 15 pmoles of choline]) was added to Waymouth 752/1 {1.25 ml} media. Incubations were stopped after 90 minutes by addition of 2 ml of methanol containing 1% 1N HCl. Cells were removed from the culture dishes by scraping with TEFLON™-coated spatula and placed in glass test tubes. (Lamb, et al., Hepatology 19: 174 (1994))
as §1
as §2, with “Agent-induced increases in the incorporation of labeled choline into PC were used to measure increases in cellular PC biosynthesis.” left out

rat liver cells = assay: PC biosynthesis of rat liver cells (labeled choline incorporation into PC); assay type: cell-based; conditions: for Alteration in cellular PC biosynthesis: rat liver cells incubated 90 minutes, 100 mM ethanol or 1 mM acetaminophen
cultured hepatocytes = assay: PC biosynthesis in primary cultures of adult rat hepatocytes, 72 h incubation; assay type: cell-based; conditions: for Change in cellular PC biosynthesis / Effect on the ethanol/acetaminophen-induced decrease in cellular PC biosynthesis: 72 hours; for Change in cellular PC biosynthesis: 100 mM ethanol, 1 mM acetaminophen; for Effect on the ethanol/acetaminophen-induced decrease in cellular PC biosynthesis: co-incubation with 100 mM ethanol or 1 mM acetaminophen
Method: Male sprague Dawley rats (Zivic-Miller) weighing 200 to 350 grams were treated with a 50 mg/kg dose of phenobarbital (ip) for 3 days prior to perfusion. During this 3 day period, the animals were also given water ad libitum containing 0.1% sodium phenobarbital. The animal was anesthetized with ether under a fume hood, then transferred to the surgical table with the abdomen exposed. The belly was shaved and cleansed with 70% ethanol and Clinidine. The abdominal skin was removed with scissors and forceps. An incision was made along the base of the abdomen and the renal artery was tied off.
After the hepatic vein was cannulated with a 16 gauge catheter, the liver was washed with a balanced salt solution containing EDTA and Tricine. The hepatic artery was cannulated with a 16 gauge catheter. After 5 minutes of reverse flow perfusion was practiced to facilitate the wash cycle. After the blood is washed from the liver, the color of the liver changes from deep red to a brownish color.
The liver was then infused with Collagenase solution (112.5 mg/300 ml of Waymouth 752/1 media) bubbled with 5% CO2. After 5 minutes, reverse flow of Collagenase into the liver was accomplished, followed by reverse to normal flow after 5 minutes. Normal flow was continued until liver tissue was breaking down and ready for collection. Complete liver wash and perfusion should take about 30 minutes.
The perfused liver was collected with a strainer and transferred to an Erlenmeyer flask containing 50 ml of original Collagenase solution. The liver was minced using a gyratory water bath at 37° C. and allowed to swirl for no longer than 15 minutes. The solution was then filtered through a sterile gauze into centrifuge tubes and spun in a table top centrifuge for 5 minutes at 1000 rpm. (70×g). Aspirate media and suspended cells were placed in Waymouth 752/1 media containing 20% isodensity Percol and were then centrifuged for 4 minutes at 70×g. Cells were washed three times and resuspended in Waymouth 752/1 media. Samples of 0.5 ml were plated on 35 mm collagen-coated plastic culture dishes containing 0.75 ml of supplemented Waymouth 752/1 media.
as §3, §1

cultured rat liver cells = assay: PC biosynthesis of cultured rat liver cells from 3 and 20 month-old rats, 24 h; assay type: cell-based; conditions: 1 mM APAP, 100 mM ETOH, mean ± SEM of nine values; for PC biosynthesis, 3 Month: cells from 3 month-old male rats; for PC biosynthesis, 20 Month: cells from 20 month-old male rats
Method: as §3, §1

cultured liver cells = assay: PC biosynthesis of cultured liver cells incubated 24 and 72 hours with and without vitamin E phosphate; assay type: cell-based; conditions: 24 and 72 hours with and without 50 μM vitamin E phosphate
Method: After the appropriate agent-incubation period, a 0.02 ml aliquot of [^3H]-choline (0.2 μCi and 15 pmoles of choline]) was added to Waymouth 752/1 {1.25 ml} media. […] Cells were removed from the culture dishes by scraping with TEFLON™-coated spatula and placed in glass test tubes. (Lamb, et al., Hepatology 19: 174 (1994))
Alterations in PC biosynthesis were studied using cultured liver cells incubated 24 and 72 hours with and without 50 μM vitamin E phosphate (VEP).

[2] = tested on: cells isolated from rat lung; assay: PC biosynthesis in cells isolated from rat lung; assay type: cell-based; conditions: 1 mM APAP, 30 minutes
[3] = tested on: cells isolated from rat intestine; assay: PC biosynthesis in cells isolated from rat intestine; assay type: cell-based; conditions: 1 mM APAP, 30 minutes
erythrocytes [4] = assay: PC biosynthesis in cells isolated from rat blood (erythrocytes); assay type: cell-based; conditions: 1 mM APAP, 30 minutes
Method: Preparation of red cell fractions: Rat or human blood was placed in Sorval tubes and, centrifuged at 3000 rpm for 10 minutes under refrigeration. The supernate was removed and the pellet of RBC's resuspended in PBS at 4 times the volume of the supernate. This may be frozen in 2 ml aliquots at −70° C.

For `CCCCCc1cc(O)c2c(c1)OC(C)(C)[C@@H]1CCC(C)=C[C@@H]21` [THC, Δ-9-tetrahydrocannabinol], the “Agent-induced alterations in PC biosynthesis, Percent control of + SEM” value (brain cell fractions) was 293 ± 21 Percent control, the “PC biosynthesis, Percent control of + SEM” value (cultured astrocyte) was 201 ± 11 Percent control and the “PC biosynthesis % of Control ± SEM” value (rat red blood cells) was 1142 ± 65 % of Control. For the same molecule, the “PC biosynthesis percent of control ± SEM” value (human red blood cells) was 433 ± 30% of control.

In the case of `C=CC=O` [acreolein], the “Adverse effects on erythrocytes” value (erythrocytes [1]) is listed as “deleterious effects on the cells”.

With `CCO` [ethanol] the “Alteration in cellular PC biosynthesis” value (human liver cells) was “significantly (p<0.05) increase”, the “Alteration in cellular PC biosynthesis” value (rat liver cells) was “significantly (p<0.05) increased” and the PC biosynthesis (cultured hepatocytes; 72 h, 100 mM ETOH, 1 mM APAP, 0.5 mM 4-MP, 200 units SOD, 800 units CAT, 2 mM DEF, 0.025 mM 20:4, 0.25 mM 16:0, 6-9 experimental values) was 39 ± 2% of control. For the same molecule, the “Change in cellular PC biosynthesis” value (cultured hepatocytes) was “significant decrease”, the “PC biosynthesis, 3 Month” value (cultured rat liver cells) was 147 ± 13% of control and the “PC biosynthesis, 20 Month” value (cultured rat liver cells) was 59 ± 1% of control. For the same molecule, the “Agent-induced alterations in PC biosynthesis, Percent control of + SEM” value (brain cell fractions) was 173 ± 8 Percent control, the “PC biosynthesis, Percent control of + SEM” value (cultured astrocyte) was 199 ± 14 Percent control and the “PC biosynthesis % of Control ± SEM” value (rat red blood cells) was 374 ± 19 % of Control. For the same molecule, the “PC biosynthesis percent of control ± SEM” value (human red blood cells) was 222 ± 9% of control.

In the case of `ClC(Cl)(Cl)Br` [BTM, bromotrichloromethane], the “Agent-induced alterations in PC biosynthesis, Percent control of + SEM” value (brain cell fractions) is reported as 194 ± 25 Percent control, the “PC biosynthesis % of Control ± SEM” value (rat red blood cells) is reported as 533 ± 29 % of Control and the “PC biosynthesis percent of control ± SEM” value (human red blood cells) is reported as 728 ± 3% of control.

With `Cc1c(C)c2c(c(C)c1OC(=O)CCC(=O)O)CC[C@@](C)(CCC[C@H](C)CCC[C@H](C)CCCC(C)C)O2` [VES, vitamin E succinate] the “Effect on the ethanol/acetaminophen-induced decrease in cellular PC biosynthesis” value (cultured hepatocytes) was “reduced”.

For iron, the “PC biosynthesis % of Control ± SEM” value (rat red blood cells) was 919 ± 73 % of Control.

With `Cc1cn[nH]c1` [4-MP, 4-methylpyrazole] the “Effect on ethanol and acetaminophen-induced increases in cellular PC biosynthesis” value (human liver cells; 1 mM 4-methylpyrazole, 90 minutes, with 100 mM ethanol or 1 mM acetaminophen) was “significantly decreases”, the “Effect on ethanol-induced and acetaminophen-induced increases in cellular biosynthesis” value (rat liver cells; 4-methylpyrazole, 90 minutes, with 100 mM ethanol or 1 mM acetaminophen) was “significantly reduced” and the “Effect on the ethanol/acetaminophen-induced decrease in cellular PC biosynthesis” value (cultured hepatocytes) was “reduced”. The “Effect on agent-induced increase in PC biosynthesis” value (cultured astrocyte; 1 mM 4-MP with ethanol, APAP, THC or combinations) was “Å values without 4-MP are significantly increased (p < 0.05) above controls. 4-MP significantly reduced (p < 0.05) the agent-induced increase in PC biosynthesis” and the “Effect on drug-induced increases in PC biosynthesis” value (human red blood cells; 30 minutes, 4-MP added to each agent) was “significantly (p<0.05) reduces”.

With `Cc1c(C)c2c(c(C)c1OP(=O)(O)O)CCC(C)(CCCC(C)CCCC(C)CCCC(C)C)O2` (stereo not drawn) [vitamin E phosphate] the “Alterations in PC biosynthesis” value (cultured liver cells) was “incubation time-dependent decreases in PC biosynthesis unless vitamin E phosphate was added”.

For `CC(=O)Nc1ccc(O)cc1` [APAP, acetaminophen], the “Alteration in cellular PC biosynthesis” value (human liver cells) was “significantly (p<0.05) increase”, the “Alteration in cellular PC biosynthesis” value (rat liver cells) was “significantly (p<0.05) increased” and the “Change in cellular PC biosynthesis” value (cultured hepatocytes) was “significant decrease”. For the same molecule, the “PC biosynthesis, 3 Month” value (cultured rat liver cells) was 137 ± 11% of control, the “PC biosynthesis, 20 Month” value (cultured rat liver cells) was 38 ± 2% of control and the “PC biosynthesis, Percent control of + SEM” value (cultured astrocyte) was 159 ± 15 Percent control. For the same molecule, the “PC biosynthesis % of Control ± SEM” value (rat red blood cells) was 655 ± 26 % of Control, the “PC biosynthesis percent of control ± SEM” value (human red blood cells) was 512 ± 27% of control and the “PC biosynthesis percent of control ± SEM, lung” value [2] was 471 ± 38% of control. For the same molecule, the “PC biosynthesis percent of control ± SEM, intestine” value [3] was 287 ± 13% of control and the “PC biosynthesis percent of control ± SEM, erythrocytes” value (erythrocytes [4]) was 236 ± 13% of control.

For `C=CCO` [allyl alcohol], the “PC biosynthesis % of Control ± SEM” value (rat red blood cells) is listed as 1315 ± 99 % of Control, the “PC biosynthesis percent of control ± SEM” value (human red blood cells) is listed as 377 ± 3% of control and the “Adverse effects on erythrocytes” value (erythrocytes [1]) is listed as “could not demonstrate the adverse effects”.

In the case of `COC(=O)[C@H]1[C@@H](OC(=O)c2ccccc2)C[C@@H]2CC[C@H]1N2C` [cocaine], the “PC biosynthesis % of Control ± SEM” value (rat red blood cells) is reported as 458 ± 7 % of Control and the “PC biosynthesis percent of control ± SEM” value (human red blood cells) is reported as 292 ± 10% of control.

For `C=CC(=O)O` [acrylic acid], the “Adverse effects on erythrocytes” value (erythrocytes [1]) is given as “could not demonstrate the adverse effects”.

In the case of `O=S(=O)([O-])[O-].[Fe+2]` [FeSO4], the “Agent-induced alterations in PC biosynthesis, Percent control of + SEM” value (brain cell fractions) is reported as 226 ± 8 Percent control.

B1: CAT: catalase (protein, UniProt P00432 2-527, looked up)
Catalase: ADNRDPASDQMKHWKEQRAAQKPDVLTTGGGNPVGDKLNSLTVGPRGPLLVQDVVFTDEMAHFDRERIPERVVHAKGAGAFGYFEVTHDITRYSKAKVFEHIGKRTPIAVRFSTVAGESGSADTVRDPRGFAVKFYTEDGNWDLVGNNTPIFFIRDALLFPSFIHSQKRNPQTHLKDPDMVWDFWSLRPESLHQVSFLFSDRGIPDGHRHMNGYGSHTFKLVNANGEAVYCKFHYKTDQGIKNLSVEDAARLAHEDPDYGLRDLFNAIATGNYPSWTLYIQVMTFSEAEIFPFNPFDLTKVWPHGDYPLIPVGKLVLNRNPVNYFAEVEQLAFDPSNMPPGIEPSPDKMLQGRLFAYPDTHRHRLGPNYLQIPVNCPYRARVANYQRDGPMCMMDNQGGAPNYYPNSFSAPEHQPSALEHRTHFSGDVQRFNSANDDNVTQVRTFYLKVLNEEQRKRLCENIAGHLKDAQLFIQKKAVKNFSDVHPEYGSRIQALLDKYNEEKPKNAVHTYVQHGSHLSAREKANL
With B1 the “Effect on the ethanol/acetaminophen-induced decrease in cellular PC biosynthesis” value (cultured hepatocytes) was “reduced”.
